Experiment [1] addresses T1, PFPK5(P. falciparum) (Plasmodium falciparum, UniProt P61075).
T1 construct: purchased DiscoveRx (Fremont, CA)
Nature of the experiment: KinomeScan. The experiment is classed as binding. The settings on record: read-out: % Control.

Experiment [2] addresses T2, VRK2 (Homo sapiens, UniProt Q86Y07).
T2 construct: purchased DiscoveRx
As to the kind of experiment: KinomeScan. The experiment is classed as binding. The settings on record: read-out: % Control.

Experiment [3] addresses T3, MAP3K3 (Homo sapiens, UniProt Q99759).
T3 construct: purchased DiscoveRx (Fremont, CA)
As to the kind of experiment: KinomeScan. The experiment is classed as binding. The settings on record: read-out: % Control.

In experiment [4] the target is T4, MST2 (Homo sapiens, UniProt Q13188).
T4 construct: purchased DiscoveRx
As to the kind of experiment: KinomeScan. The experiment is classed as binding. Particulars: read-out: % Control.

Experiment [5] concerns the target T5, EP3 (Homo sapiens, UniProt P43115).
T5 construct: host or cells: Chem-1 cells expressing Gα15
Nature of the experiment: GPCR Profiler. The experiment is classed as cell-based.

The target in experiment [6] is T6, MTOR (Homo sapiens, UniProt P42345).
T6 construct: purchased DiscoveRx
As to the kind of experiment: KinomeScan. The experiment is classed as binding. The settings on record: read-out: % Control.

The target of experiment [7] is T7, BLK (Homo sapiens, UniProt P51451).
T7 construct: purchased DiscoveRx (Fremont, CA)
As to the kind of experiment: KinomeScan. The experiment is classed as binding. Particulars: read-out: % Control.

Experiment [8] addresses T8, STK36 (Homo sapiens, UniProt Q9NRP7).
T8 construct: purchased DiscoveRx (Fremont, CA)
As to the kind of experiment: KinomeScan. The experiment is classed as binding. The settings on record: read-out: % Control.

In experiment [9] the target is T9, OPRD1 (Homo sapiens, UniProt P41143).
T9 construct: host or cells: Chem-1 cells expressing Gα15
As to the kind of experiment: GPCR Profiler. The experiment is classed as cell-based.

For experiment [10], the target named is T10, PRKCE (Homo sapiens, UniProt Q02156).
T10 construct: purchased DiscoveRx (Fremont, CA)
Nature of the experiment: KinomeScan. The experiment is classed as binding. The settings on record: read-out: % Control.

Experiment [11] has as its target CLK4 (Homo sapiens, UniProt Q9HAZ1). Nature of the experiment: KinomeScan. The experiment is classed as binding. Particulars: read-out: % Control.
In experiment [12] the target is T11, PAK1 (Homo sapiens, UniProt Q13153).
T11 construct: purchased DiscoveRx
Nature of the experiment: KinomeScan. The settings on record: read-out: % Control. The experiment is classed as binding.

Experiment [13] concerns the target T12, MEK5 (Homo sapiens, UniProt Q13163).
T12 construct: purchased DiscoveRx (Fremont, CA)
Nature of the experiment: KinomeScan. The experiment is classed as binding. Particulars: read-out: % Control.

In experiment [14] the target is T13, S1P4 (Homo sapiens, UniProt O95977).
T13 construct: host or cells: Chem-1 cells with Gα15
Nature of the experiment: GPCR Profiler. The experiment is classed as cell-based.

The target of experiment [15] is T14, IRAK3 (Homo sapiens, UniProt Q9Y616).
T14 construct: purchased DiscoveRx (Fremont, CA)
As to the kind of experiment: KinomeScan. The experiment is classed as binding. The settings on record: read-out: % Control.

For experiment [16], the target named is T15, sst4 (Homo sapiens, UniProt P31391).
T15 construct: host or cells: Chem-1 cells with Gα15
As to the kind of experiment: GPCR Profiler. The experiment is classed as cell-based.

For experiment [17], the target named is T16, EPHA4 (Homo sapiens, UniProt P54764).
T16 construct: purchased DiscoveRx (Fremont, CA)
As to the kind of experiment: KinomeScan. The experiment is classed as binding. The settings on record: read-out: % Control.

The target of experiment [18] is T17, NEK7 (Homo sapiens, UniProt Q8TDX7).
T17 construct: purchased DiscoveRx
As to the kind of experiment: KinomeScan. The settings on record: read-out: % Control. The experiment is classed as binding.

In experiment [19] the target is T18, RIOK1 (Homo sapiens, UniProt Q9BRS2).
T18 construct: purchased DiscoveRx (Fremont, CA)
As to the kind of experiment: KinomeScan. The experiment is classed as binding. Particulars: read-out: % Control.

Experiment [20] addresses T19, ADRB3 (Homo sapiens, UniProt P13945).
T19 construct: host or cells: Chem-1 cells with promiscuous Gα15
Nature of the experiment: GPCR Profiler. The settings on record: 12.5 uM. The experiment is classed as cell-based.

Experiment [21] concerns the target T20, BRSK1 (Homo sapiens, UniProt Q8TDC3).
T20 construct: purchased DiscoveRx (KinomeScan service)
Nature of the experiment: KinomeScan. The experiment is classed as binding. Particulars: read-out: % Control.

The target of experiment [22] is T21, EGFR(L858R, T790M) (Homo sapiens, UniProt P00533, L858R/T790M).
T21 construct: purchased DiscoveRx (Fremont, CA), KinomeScan service
Nature of the experiment: KinomeScan. The settings on record: read-out: % Control. The experiment is classed as binding.

The target of experiment [23] is T22, MC4 (Homo sapiens, UniProt P32245).
T22 construct: host or cells: Chem-1 cells with promiscuous Gα15
As to the kind of experiment: GPCR Profiler. The experiment is classed as cell-based.

In experiment [24] the target is T23, FGFR3 (Homo sapiens, UniProt P22607).
T23 construct: purchased DiscoveRx (Fremont, CA)
As to the kind of experiment: KinomeScan. Particulars: read-out: % Control. The experiment is classed as binding.

The target in experiment [25] is T24, MRCKB (Homo sapiens, UniProt Q9Y5S2).
T24 construct: purchased DiscoveRx
As to the kind of experiment: KinomeScan. The experiment is classed as binding. Particulars: read-out: % Control.

For experiment [26], the target named is T25, PLK1 (Homo sapiens, UniProt P53350).
T25 construct: purchased DiscoveRx (Fremont, CA)
Nature of the experiment: KinomeScan. The experiment is classed as binding. Particulars: read-out: % Control.

Experiment [27] deals with T26, H1 (Homo sapiens, UniProt P35367).
T26 construct: host or cells: Chem-1 cells with promiscuous Gα15
As to the kind of experiment: GPCR Profiler. The experiment is classed as cell-based.

For experiment [28], the target named is T27, TP (Homo sapiens, UniProt P21731).
T27 construct: host or cells: Chem-1 cells with Gα15
As to the kind of experiment: GPCR Profiler. The experiment is classed as cell-based.

The target of experiment [29] is T28, S1P5 (Homo sapiens, UniProt Q9H228).
T28 construct: host or cells: Chem-1 cells with Gα15
Nature of the experiment: GPCR Profiler. The experiment is classed as cell-based.

Experiment [30] has as its system A2058. As to the kind of experiment: Scratch assay. The experiment is classed as cell-based, human. The settings on record: 20 hours, OGM2 5 uM.
For experiment [31], the target named is GPR68 (Homo sapiens, UniProt Q15743). As to the kind of experiment: SRE-luciferase assay, GPR68-transfected HEK293 cells. Particulars: 10 μM OGM2. The experiment is classed as cell-based. Here is the method: 12-well plates of cells were transfected with 1 μg DNA using Lipofectamine 3000 with sre:luciferase and either the vector backbone, GFP, GPR68, GPR68-GFP, GPR4, or 336X-GFP. After 3 days, these cells were then lysed, and cell extracts were subjected to Steady-Glo luciferase assay (Promega™) according to the manufacturer's instructions. The results were normalized to cell titer, as determined using Cell Titer-Glo luminescence assay (Promega™). For some procedure, the cells were treated in serum-free medium, and were lysed on the third day.
Because GPR4, the paralog with highest homology with GPR68, was not covered in the initial GPCR profiling, whether OGM2 could inhibit GPR4 was tested by examining the effects of OGM2 on acid-induced serum responsive element (SRE) luciferase activity in HEK293 cells transfected with either GPR4 or GPR68. Mild acidification increased luciferase activity in GPR4 and GPR68 transfected cells above that of vector control.
Cas9^GPR68=GPR68 targeted sgRNA and Cas9; CTL=control; MoGPR68=GPR68 morpholino treatment. […] These cells were exposed to acidic media and assayed for luciferase activity as a readout of the receptor activity.

Each structure is given as a SMILES string.

T26 sequence (P35367 whole entry): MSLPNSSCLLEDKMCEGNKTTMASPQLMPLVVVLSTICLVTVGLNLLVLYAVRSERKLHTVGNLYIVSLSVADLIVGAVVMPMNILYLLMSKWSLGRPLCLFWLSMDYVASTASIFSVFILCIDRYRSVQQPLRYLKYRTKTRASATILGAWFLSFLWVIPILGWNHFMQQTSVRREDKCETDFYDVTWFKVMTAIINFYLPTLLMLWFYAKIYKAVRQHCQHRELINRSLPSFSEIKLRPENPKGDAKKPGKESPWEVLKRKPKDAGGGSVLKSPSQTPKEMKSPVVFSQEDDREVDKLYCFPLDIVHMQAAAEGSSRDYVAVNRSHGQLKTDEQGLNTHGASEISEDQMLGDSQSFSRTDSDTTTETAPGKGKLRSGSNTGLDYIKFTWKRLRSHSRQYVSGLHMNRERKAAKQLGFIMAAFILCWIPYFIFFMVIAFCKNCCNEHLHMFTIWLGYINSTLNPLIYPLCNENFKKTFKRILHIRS
T28 sequence (Q9H228 whole entry, species assumed): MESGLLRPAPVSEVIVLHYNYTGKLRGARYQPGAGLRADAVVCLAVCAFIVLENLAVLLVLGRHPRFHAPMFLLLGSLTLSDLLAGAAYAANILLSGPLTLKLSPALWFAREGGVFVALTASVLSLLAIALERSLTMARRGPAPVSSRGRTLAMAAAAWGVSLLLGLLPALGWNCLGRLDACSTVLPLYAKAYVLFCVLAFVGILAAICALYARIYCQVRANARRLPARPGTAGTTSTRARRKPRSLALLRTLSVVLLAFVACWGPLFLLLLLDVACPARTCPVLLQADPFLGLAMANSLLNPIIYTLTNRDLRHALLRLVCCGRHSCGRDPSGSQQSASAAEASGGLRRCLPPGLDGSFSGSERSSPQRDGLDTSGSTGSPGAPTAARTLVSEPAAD
T15 sequence (P31391 whole entry, species assumed): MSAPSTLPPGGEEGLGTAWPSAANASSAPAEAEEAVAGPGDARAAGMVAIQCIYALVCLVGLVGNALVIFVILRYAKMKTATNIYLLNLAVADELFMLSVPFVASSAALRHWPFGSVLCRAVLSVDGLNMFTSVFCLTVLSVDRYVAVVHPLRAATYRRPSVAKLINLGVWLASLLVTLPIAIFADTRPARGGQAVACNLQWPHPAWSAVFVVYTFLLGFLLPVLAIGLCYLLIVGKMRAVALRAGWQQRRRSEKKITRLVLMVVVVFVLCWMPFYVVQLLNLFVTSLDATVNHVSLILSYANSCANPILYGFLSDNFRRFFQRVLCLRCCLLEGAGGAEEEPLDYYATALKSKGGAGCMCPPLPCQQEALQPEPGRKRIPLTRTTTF
T9 sequence (P41143 whole entry, species assumed): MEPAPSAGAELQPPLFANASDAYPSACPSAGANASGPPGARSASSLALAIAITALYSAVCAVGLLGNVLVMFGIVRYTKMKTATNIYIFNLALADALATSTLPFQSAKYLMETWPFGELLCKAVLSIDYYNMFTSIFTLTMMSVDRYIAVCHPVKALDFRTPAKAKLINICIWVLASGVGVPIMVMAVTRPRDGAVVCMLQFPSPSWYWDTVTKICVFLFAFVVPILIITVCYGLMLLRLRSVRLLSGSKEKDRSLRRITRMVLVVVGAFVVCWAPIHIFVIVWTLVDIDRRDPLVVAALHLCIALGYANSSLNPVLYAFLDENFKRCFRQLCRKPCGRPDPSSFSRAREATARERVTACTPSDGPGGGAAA
T27 sequence (P21731 whole entry): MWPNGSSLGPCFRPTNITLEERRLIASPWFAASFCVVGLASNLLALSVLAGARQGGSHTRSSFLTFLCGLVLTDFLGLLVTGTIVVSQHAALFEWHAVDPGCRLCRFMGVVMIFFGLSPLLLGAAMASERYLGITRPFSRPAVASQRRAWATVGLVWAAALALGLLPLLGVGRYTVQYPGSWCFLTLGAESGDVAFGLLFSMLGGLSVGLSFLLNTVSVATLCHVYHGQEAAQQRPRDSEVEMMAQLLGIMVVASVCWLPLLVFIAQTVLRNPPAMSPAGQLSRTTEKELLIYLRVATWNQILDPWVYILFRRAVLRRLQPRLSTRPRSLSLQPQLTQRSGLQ
T5 sequence (P43115 whole entry): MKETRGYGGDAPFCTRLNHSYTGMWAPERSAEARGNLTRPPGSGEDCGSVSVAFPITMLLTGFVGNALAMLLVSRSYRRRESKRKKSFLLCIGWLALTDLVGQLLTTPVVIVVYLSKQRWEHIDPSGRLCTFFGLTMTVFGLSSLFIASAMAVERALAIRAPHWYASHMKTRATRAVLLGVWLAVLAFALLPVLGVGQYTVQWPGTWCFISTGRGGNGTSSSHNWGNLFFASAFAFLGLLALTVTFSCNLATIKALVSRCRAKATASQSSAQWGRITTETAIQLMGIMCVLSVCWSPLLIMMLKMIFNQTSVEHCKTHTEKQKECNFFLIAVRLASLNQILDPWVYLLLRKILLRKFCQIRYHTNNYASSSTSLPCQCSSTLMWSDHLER
T13 sequence (O95977 whole entry, species assumed): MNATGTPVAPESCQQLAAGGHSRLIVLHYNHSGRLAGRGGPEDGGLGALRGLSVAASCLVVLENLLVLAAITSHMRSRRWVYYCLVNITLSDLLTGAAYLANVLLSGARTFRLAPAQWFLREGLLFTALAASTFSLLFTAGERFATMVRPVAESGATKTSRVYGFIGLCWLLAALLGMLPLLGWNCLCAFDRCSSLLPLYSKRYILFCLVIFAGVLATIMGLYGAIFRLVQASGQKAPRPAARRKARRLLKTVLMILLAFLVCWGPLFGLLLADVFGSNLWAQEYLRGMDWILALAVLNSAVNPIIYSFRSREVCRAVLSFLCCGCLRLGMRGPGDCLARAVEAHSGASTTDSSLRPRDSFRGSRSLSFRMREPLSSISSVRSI
T22 sequence (P32245 whole entry): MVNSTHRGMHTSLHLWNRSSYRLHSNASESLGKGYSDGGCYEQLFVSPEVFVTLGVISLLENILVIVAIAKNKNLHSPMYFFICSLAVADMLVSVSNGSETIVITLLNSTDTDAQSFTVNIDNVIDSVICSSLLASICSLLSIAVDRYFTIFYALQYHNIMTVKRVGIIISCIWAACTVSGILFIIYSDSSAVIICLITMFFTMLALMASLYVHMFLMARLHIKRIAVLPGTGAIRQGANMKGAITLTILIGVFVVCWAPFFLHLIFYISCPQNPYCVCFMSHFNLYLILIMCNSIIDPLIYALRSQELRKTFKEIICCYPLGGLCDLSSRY
T3 sequence (Q99759 whole entry): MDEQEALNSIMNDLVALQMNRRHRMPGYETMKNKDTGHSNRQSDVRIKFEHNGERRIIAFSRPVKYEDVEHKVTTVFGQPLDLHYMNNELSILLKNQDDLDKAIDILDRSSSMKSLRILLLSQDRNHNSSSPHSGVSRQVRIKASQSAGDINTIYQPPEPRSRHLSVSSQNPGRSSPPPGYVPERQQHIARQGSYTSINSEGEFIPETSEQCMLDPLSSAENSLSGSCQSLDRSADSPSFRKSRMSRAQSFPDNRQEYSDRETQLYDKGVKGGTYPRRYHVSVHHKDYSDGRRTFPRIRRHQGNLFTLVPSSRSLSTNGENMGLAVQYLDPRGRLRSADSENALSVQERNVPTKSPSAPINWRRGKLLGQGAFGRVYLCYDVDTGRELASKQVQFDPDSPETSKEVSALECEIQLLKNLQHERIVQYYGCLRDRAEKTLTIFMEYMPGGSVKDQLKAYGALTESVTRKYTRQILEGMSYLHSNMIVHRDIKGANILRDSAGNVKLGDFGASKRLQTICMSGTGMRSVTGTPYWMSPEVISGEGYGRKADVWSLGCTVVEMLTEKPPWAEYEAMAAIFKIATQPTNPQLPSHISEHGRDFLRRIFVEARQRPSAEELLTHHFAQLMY
T4 sequence (Q13188 whole entry): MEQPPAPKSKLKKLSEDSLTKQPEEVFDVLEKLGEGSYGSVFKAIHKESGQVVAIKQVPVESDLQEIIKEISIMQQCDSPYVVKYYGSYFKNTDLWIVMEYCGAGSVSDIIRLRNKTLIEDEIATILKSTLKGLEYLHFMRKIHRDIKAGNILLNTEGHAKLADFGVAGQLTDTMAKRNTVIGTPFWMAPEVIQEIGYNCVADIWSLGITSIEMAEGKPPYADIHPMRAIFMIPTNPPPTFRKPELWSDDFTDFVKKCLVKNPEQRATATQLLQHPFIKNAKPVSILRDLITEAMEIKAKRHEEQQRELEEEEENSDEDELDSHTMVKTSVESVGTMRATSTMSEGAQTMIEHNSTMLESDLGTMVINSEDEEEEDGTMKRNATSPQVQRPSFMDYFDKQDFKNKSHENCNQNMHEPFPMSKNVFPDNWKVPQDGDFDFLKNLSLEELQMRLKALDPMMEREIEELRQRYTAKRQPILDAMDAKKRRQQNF
T12 sequence (Q13163 whole entry): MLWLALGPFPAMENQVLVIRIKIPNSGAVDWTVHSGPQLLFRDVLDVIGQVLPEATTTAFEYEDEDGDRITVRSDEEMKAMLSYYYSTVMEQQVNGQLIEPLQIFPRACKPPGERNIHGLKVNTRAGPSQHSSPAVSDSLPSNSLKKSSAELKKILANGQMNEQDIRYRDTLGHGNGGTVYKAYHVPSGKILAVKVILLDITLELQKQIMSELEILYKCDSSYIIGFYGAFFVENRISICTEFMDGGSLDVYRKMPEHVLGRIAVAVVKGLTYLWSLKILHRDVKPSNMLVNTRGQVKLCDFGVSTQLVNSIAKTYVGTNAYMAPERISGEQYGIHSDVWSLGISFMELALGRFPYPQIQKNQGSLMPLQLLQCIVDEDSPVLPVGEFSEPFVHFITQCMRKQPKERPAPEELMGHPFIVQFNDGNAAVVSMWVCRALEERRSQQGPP
T1 sequence (P61075 whole entry): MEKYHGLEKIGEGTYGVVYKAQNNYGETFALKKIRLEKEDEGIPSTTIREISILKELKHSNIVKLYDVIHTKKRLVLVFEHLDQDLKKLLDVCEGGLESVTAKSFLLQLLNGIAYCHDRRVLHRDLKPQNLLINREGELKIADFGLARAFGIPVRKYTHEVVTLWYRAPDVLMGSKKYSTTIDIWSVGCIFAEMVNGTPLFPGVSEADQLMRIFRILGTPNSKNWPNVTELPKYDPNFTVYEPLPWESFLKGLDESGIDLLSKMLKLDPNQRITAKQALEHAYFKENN

`CCc1ccc2c(c1)C1(NN=C(c3cccc4ccccc34)S1)C(=O)N2` (stereo not drawn) [OGM1, 5-ethyl-5′-naphthalen-1-ylspiro[1H-indole-3,2′-3H-1,3,4-thiadiazole]-2-one]: the remaining binding at 10 µM is 82% in experiment [1]; 93% in experiment [2]; 72% in [3]; 69% in [4]; 86% in experiment [6]; 97% in experiment [7]. For the same compound, the remaining binding at 10 µM in experiment [8] stood at 100%; in experiment [10], 68%; in experiment [11], 88%; in experiment [12] it was 70%; in experiment [13], 92%; in experiment [15] it was 97%. Besides, the remaining binding at 10 µM was 100% in experiment [17]; 100% in [18]; 100% in experiment [19]; 100% in [21]; 89% in [22]; 100% in experiment [24]. Besides, the remaining binding at 10 µM in experiment [25] and in [26] was 100% throughout. For the same compound, the Antagonism in experiment [5] (10 uM) is listed as 6.3; in experiment [9] (10 uM) it was 7.4; in experiment [14] (10 uM), −5.2; in experiment [16] (10 uM), −2.6; in experiment [23] (10 uM) it was −5.4; in experiment [27] (10 uM) it was −17.2. The Antagonism amounted to 8.1 in [28] (10 uM) and 0.9 in experiment [29] (10 uM). In addition, the Agonism in experiment [5] (12.5 uM) is reported as 0.4; in experiment [9] (12.5 uM) it was −0.1; in experiment [14] (12.5 uM), 0.3; in experiment [16] (12.5 uM), −1.1; in [20] it was −0.2; in [23] (12.5 uM), −0.3. The Agonism in experiment [27] (12.5 uM) amounted to 2.1; in [28] (12.5 uM), 0.2; in experiment [29] (12.5 uM), 1.8.
Regarding `CCc1ccc2c(c1)C1(NN=C(c3ccccc3)S1)C(=O)N2` (stereo not drawn) [OGM2], the migration entry in [30] was “inhibited migration”. Also, the “acid-induced SRE-luciferase activity” value in [31] is given as “completely inhibited the signal”.

These data come from US20240327364A1, “THERAPEUTIC TARGETING OF GPR68 TO INDUCE FERROPTOSIS” (University Of Maryland, Baltimore, priority 2023, published 2024).
